The text below walks through data of patent publication US20170319519A1, “COMBINATION FOR THE TREATMENT OF CONDITIONS INVOLVING MUSCULAR PAIN” (Spherium Biomed S.L., priority 2014, published 2017).

The subject of this experiment is patients with temporomandibular pain. Nature of the experiment: Global pain reduction in TMJ patients, visual analogic scale (VAS). The note with it: n=3 per group, treated 3 times over 24 h, VAS 8 hours after the last administration. The experiment is classed as in vivo.

Each structure is given as a SMILES string.

Experimental: In order to test the role of vitamin C in the formulation 7 groups of patients (n=3) with temporomandibular pain were administered the following combinations:
Patients were treated 3 times over 24 h, and were asked to evaluate their pain (localized and general) 8 hours after the last administration using a visual analogic scale (VAS) from 1 to 10, being 10 the most positive situation. The results of the two assessments were summed up to obtain the global pain score.

With `O=C1O[C@H]([C@@H](O)CO)C(O)=C1O` [Group 7, Vitamin C], the “effect on reduction of (global) pain, conclusions in words” value is given as “worst values in all parameters”. The “effect on reduction of (global) pain, conclusions in words” value (listed as Vit C) was “no effect”.
